Values of other authors in patent EP4628546A1, “CYANINE DIMERS FOR PHOTOTHERMAL TREATMENT OF CANCER GUIDED BY FLUORESCENCE/PHOTOACOUSTIC IMAGING” (Centre National de la Recherche Scientifique, priority 2024, dated 2025).

Conditions: IR 780 in EtOH, reference value

Φfluo,ref: 0.08
Structure (SMILES): CCCN1/C(=C/C=C2\CCCC(/C=C/C3=[N+](CCC)c4ccccc4C3(C)C)=C2Cl)C(C)(C)c2ccccc21.[I-] [IR 780]
